According to article PMC9866367 (Journal of medicinal chemistry, 2022):
Each block holds one compound with its values, some of them ahead of it.

Tests used:
[1] = In vivo pharmacokinetic analysis in mice; design: species or system male CD-1 mice
panel of 322 kinases = test: Kinase panel; type: biochemical; conditions: Table S2
[2] = 50 mg/kg IP, male mice, 1 h post-dosing; cited from earlier work
[3] = tested on: 46 other relevant drug targets such as GPCRs, ion channels, and nuclear receptors; test: Eurofins safety panel; conditions: Table S3
Cytotoxicity = type: cell-based
GSH = type: in vitro ADME; conditions: 5 μM compound, 5 mM GSH, up to 2 h
[4] = target: T1, recombinant purified His-tagged sACt protein (Homo sapiens, UniProt Q96PN6); test: Binding kinetics via surface plasmon resonance; conditions: read-out: SPR Residence Time
T1 sequence (Q96PN6 1-469 limits assumed): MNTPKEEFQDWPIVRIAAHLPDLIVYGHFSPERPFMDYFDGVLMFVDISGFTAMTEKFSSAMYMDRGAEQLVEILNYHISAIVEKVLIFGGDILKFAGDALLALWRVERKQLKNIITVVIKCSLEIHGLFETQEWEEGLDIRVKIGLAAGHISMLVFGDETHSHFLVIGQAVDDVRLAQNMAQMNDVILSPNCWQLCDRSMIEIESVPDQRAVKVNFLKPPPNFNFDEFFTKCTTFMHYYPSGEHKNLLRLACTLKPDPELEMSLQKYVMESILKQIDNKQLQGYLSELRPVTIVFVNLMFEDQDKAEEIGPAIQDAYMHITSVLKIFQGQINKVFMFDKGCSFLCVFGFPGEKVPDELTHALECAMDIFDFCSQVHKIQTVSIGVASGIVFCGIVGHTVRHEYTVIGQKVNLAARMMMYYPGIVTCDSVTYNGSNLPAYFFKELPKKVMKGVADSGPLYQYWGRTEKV

[5] = target: T2, purified human sAC protein (Homo sapiens, UniProt Q96PN6); test: In vitro cyclase activity assay; type: biochemical
T2 sequence (Q96PN6 1-469): T1 sequence (Q96PN6 1-469 limits assumed)

[6] = male, CD-1, mouse, plasma, iv, 2 mg/kg

- unbound plasma exposure over cellular IC50 ([…]) ([1]; 50 mg/kg PO, CD-1 mice, out to 4 h): ~ 10 fold
- AUC(0-t) [1, 6]: 780 ± 110 µM·h
- clearance [1, 6]: 94 ± 12 mL/min/kg
- AUC(0-t) ([1]; male, CD-1, mouse, plasma, po, 10 mg/kg): 410 ± 57 µM·h
- AUC(0-t) ([1]; male, CD-1, mouse, plasma, po, 50 mg/kg): 5460 ± 1500 µM·h
- activity against a panel of 322 kinases (panel of 322 kinases): did not show appreciable activity
- glutathione reactivity (GSH; listed as TDI-11861): no evidence of adduct formation
- glutathione reactivity (GSH; listed as TDI-11861 (33)): low propensity at 5 μM
SMILES: Nc1nc(Cl)cc(-c2nn(C(F)F)cc2Cc2ccccc2OCCN2CCOC[C@H]2CO)n1 [Compound 33, [(3R)-4-[2-[2-[[3-(2-Amino-6-chloro-pyrimidin-4-yl)-1-(difluoromethyl)pyrazol-4-yl]methyl]phenoxy]ethyl]morpholin-3-yl]methanol]
- systemic level [2]: 7.04 µM
- activity against 46 other drug targets in Eurofins safety panel [3]: did not show appreciable activity
- cytotoxicity (Cytotoxicity): >20 µM
- cytotoxicity in words (Cytotoxicity; at 20 μM): no cytotoxicity

- residence time [4]: 8.07 min
SMILES: Nc1nc(Cl)cc(-c2nn(C(F)F)cc2Cc2ccccc2OCC(=O)N2CCOCC2)n1 [Compound 24]

- biochemical activity in words [5]: almost inactive
SMILES: CN(C)C(=O)c1ccccc1Cc1cn(C)nc1-c1cc(Cl)nc(N)n1 [Compound 14]
